Results on 3 molecules are retold here after patent US20140011700A1 (Bristol-Myers Squibb Company, published 2014).

One series deals with H1N1 (A/CA/07/2009). The class given is cell-based.
Series [1] has as its target NP (nucleoprotein, A/WSN/33) (Influenza A virus, UniProt P15682).
Series [2] deals with H1N1 (A/SolomonIslands/3/2006). The class given is cell-based. As to conditions: read-out: A/Solomon-Islands/3/2006 (EC50).
In series [3] the test system is H3N2 (A/Brisbane/10/2007). The class given is cell-based.
A further series concerns A/WSN/33. The class given is cell-based.
The target in series [4] is Influenza A nucleoprotein (NP) (Influenza A virus (A/WSN/33, H1N1), UniProt P15682 P15682:8-498). Description: SPR. The settings on record: tags: N-terminal hexahistidine (pET28A), expressed in E. coli Rosetta II (DE3); label: 5'-biotin.

Turning to `COc1ccccc1-c1noc(C)c1C(=O)N1CCN(c2ccc([N+](=O)[O-])cc2Cl)CC1` [Compound B], the EC50 was over 20000 nM in the series with H1N1 (A/CA/07/2009), 660 ± 220 nM in series [2] and 7310 ± 1800 nM in series [3]. Further, the “% Pd (polydispersity)” value in series [1] was 10.2%. Further, in series [1], the “Rh (nm), hydrodynamic radius” value is 8.2 ± 0.3 nm.
Consider `Cc1cc(Br)cnc1N1CCN(C(=O)c2c(-c3ccccc3Cl)noc2C)CC1` [Compound D], for which the EC50 in the series with H1N1 (A/CA/07/2009) was over 20000 nM; in series [2] it was 2800 ± 530 nM; in series [3] it was over 20000 nM; in the series on A/WSN/33, 1020 ± 1800 nM. In addition, in series [1], the “% Pd (polydispersity)” value came to 13.5%. Moreover, the “Rh (nm), hydrodynamic radius” value in series [1] was 8.9 ± 0.2 nm.

B1: biotinylated 2'-O-methylated RNA oligonucleotide (ssRNA)
RNA: UAGAAACAAGGGUGUUUUUUCAGAUCUAUUAAACUUCACCCUGCUUUUGCU
modifications: 2'-OMe (stated as 2-O-methylated, positions not specified)
In series [4], B1 yielded a Kd of 11.2 nM.
